Data as given in patent US6900245B2, “Pharmaceutical composition comprising crystalline sibutramine methanesulfonate hemihydrate” (priority 2002, dated 2005).
Structures can show the parent of a compound that is named as a salt. Where two headings read alike, the source gives them in different places.

Experiments:
[1] = Non-hygroscopic test: water content by Karl Fischer after storage at 40° C., 75% or 10% relative humidity; format: physicochemical; conditions: for water-content: 40° C.
Protocol: Crystalline sibutramine methanesulfonate hemihydrate of formula (I), sibutramine hydrochloride monohydrate (IV) and anhydrous sibutramine methanesulfonate were each exposed to a high temperature/humidity condition of 40° C. and 75% relative humidity for 1, 2, and 5 days, and the water content thereof was measured by employing Kaal-Fisher moisture analyzer.
A similar series of experiments were conducted at 40° C. and 10% relative humidity, in order to examine whether the respective compounds are stable under a relatively dry condition.

[2] = Exposure of anhydrous enantiomer salts to room temperature, 75% relative humidity; format: physicochemical
Excerpt: Further, anhydrous (+)- and (−)-sibutramine methanesulfonate were each placed for 1 day at room temperature under 75% relative humidity.

[3] = Stability on long term storage at 60° C. (residual rate); format: physicochemical
Protocol: The thermal stability of crystalline methanesulfonate hemihydrate of formula (I) during a long term storage was compared with that of the sibutramine hydrochloride monohydrate of formula (IV). The amounts of unchanged crystalline methanesulfonate hemihydrate of formula (I) and sibutramine hydrochloride monohydrate of formula (IV) at 60° C. after 1, 2, 3 and 6 months are shown in Table 3.

[4] = Solubility in water at pH 5.2 (saturation, HPLC); format: physicochemical; conditions: for solubility: pH 5.2, thermodynamic from solid, pH5.2, saturation, HPLC, based on water-free sibutramine
Excerpt: Sibutramine methanesulfonate hemihydrate of formula (I) and sibutramine hydrochloride monohydrate were each dissolved to the saturation point at pH 5.2, and then subjected to high performance liquid chromatography (HPLC) to determine the dissolved amount (based on water-free of sibutramine).

[5] = background statement on the prior art; cited from earlier work
[6] = pH 5.2; Merck Index, 13th Ed, p1522; cited from earlier work
[7] = system: overweight Zuker rats (fa/fa); assay: Weight loss effect, 21 days, high-fat food; format: in vivo, rat; conditions: 3 mg/kg everyday for 21 days
Protocol: (§1) 16 each of overweight Zuker rats (fa/fa) and thin Zuker rats (Fa/Fa) were divided into drug-administrating and control groups (8 rats per group), and the weight of each rat was measured prior to the test. A 3 mg/kg dose of crystalline sibutramine methanesulfonate hemihydrate was administrated to each rat of the drug-administrating groups, whiling the vehicle was administrated to those of the control groups, everyday for 21 days. During the period, rats were allowed free access to high-fat food, and the average weights of the drug-administrating and control groups were determined in order to calculate the weight gain and loss.

thin Zuker rats (Fa/Fa) = assay: Weight loss effect, 21 days, high-fat food; format: in vivo, rat; conditions: 3 mg/kg everyday for 21 days
Protocol: as §1

[8] = 10% relative humidity, storage 1 day
[9] = 10% relative humidity, storage 2 days
[10] = 10% relative humidity, storage 5 days
[11] = 75% relative humidity, storage 1 day
[12] = 75% relative humidity, storage 2 days
[13] = 75% relative humidity, storage 5 days

SMILES	water-content [1, 8] [% by weight]	water-content [1, 9] [% by weight]	water-content [1, 10] [% by weight]	water-content [1, 11] [% by weight]	water-content [1, 12] [% by weight]	water-content [1, 13] [% by weight]	state after 1 day [2]	Residual rate after 1 month [3]	Residual rate after 2 months [3]	Residual rate after 3 months [3]	Residual rate after 6 months [3]	Initial (unchanged amount) [3]	solubility [4] [mg/mL]	hygroscopicity [5]	also measured
CC(C)CC(N(C)C)C1(c2ccc(Cl)cc2)CCC1.CS(=O)(=O)O (stereo not shown) [anhydrous sibutramine methanesulfonate]	0.60	0.71	0.70	0.60	2.20	2.25									
CC(C)CC(N(C)C)C1(c2ccc(Cl)cc2)CCC1.CS(=O)(=O)O (single isomer, unassigned; (-)) [(−)-sibutramine methanesulfonate]							transparent liquid								
CC(C)CC(N(C)C)C1(c2ccc(Cl)cc2)CCC1 (stereo not shown) [sibutramine hydrochloride monohydrate, reference compound]	5.40	5.36	5.36	5.40	5.45	5.48		1.000	0.999	0.999	0.992	1.000	2.8	non-hygroscopic	solubility in water [6]: 2.9 mg/mL
CC(C)CC(N(C)C)C1(c2ccc(Cl)cc2)CCC1 (racemic) [sibutramine methanesulfonate hemihydrate]	2.27	2.25	2.26	2.27	2.30	2.30		1.001	0.999	0.999	1.000	1.000	2500		stability compared with sibutramine hydrochloride monohydrate ([3]; up to 6 months): as stable as sibutramine hydrochloride monohydrate; solubility in water compared with sibutramine hydrochloride monohydrate of formula (IV) ([4]; pH 5.2): markedly higher solubility in water; weight loss effect as compared with the control group ([7]; Zuker rats, sentence covers overweight and thin rats): remarkable weight loss effect; The average weight after test (B) ([7]; overweight Zuker rats): 455.6 g; Weight gain (B − A) ([7]; overweight Zuker rats): 123.4 g; Weight loss effect ((Gain in weight of the control group) − (Gain in weight of the drug-administrating group)) ([7]; overweight Zuker rats): 29.6 g; The average weight after test (B) (thin Zuker rats (Fa/Fa)): 303.4 g; Weight gain (B − A) (thin Zuker rats (Fa/Fa)): 58.4 g; Weight loss effect ((Gain in weight of the control group) − (Gain in weight of the drug-administrating group)) (thin Zuker rats (Fa/Fa)): 20.4 g; release of the water of crystallization ([1]; dry condition (40° C., 10% RH)): does not release the water of crystallization; hygroscopicity ([1]; high humidity condition (40° C., 75% RH)): non-hygroscopic
CC(C)CC(N(C)C)C1(c2ccc(Cl)cc2)CCC1.Cl (stereo not shown) [anhydrous sibutramine hydrochloride]														highly hygroscopic	
CC(C)CC(N(C)C)C1(c2ccc(Cl)cc2)CCC1.CS(=O)(=O)O (single isomer, unassigned; (+)) [(+)-sibutramine methanesulfonate]							transparent liquid								
